# Source: publication PMC12583827, “Harnessing microbial-derived metabolites in the urinary tract to prevent infection induced catheter encrustation” (Nature Communications, 2025)
# Where two headings read alike, the source gives them in different places.
# Experiments:
# Jack Bean Urease (JBU) = molecular target: T1, Jack Bean Urease (JBU) (Canavalia ensiformis, UniProt P07374); type: biochemical; conditions: 0.1 U JBU, 500 mM urea
# T1 construct: purchased Sigma-Aldrich
# Protocol: To measure Jack Bean urease activity, the previously described assay was modified such that 0.1 U (1U liberates 1 µmol of ammonia from urea per minute) of JBU (Sigma-Aldrich urease from Canavalia ensiformis) were distributed into a 96-well plate in place of the bacterial suspensions. Acetohydroxamic acid (AHA), was used as a positive control and a vehicle control was used as a negative control. Percent of maximum urease activity was calculated using Area Under the Curve (AUC) relative to untreated bacteria of interest or untreated JBU. Urease activity measurement in MRSA was adapted from a recently published semi quantitative assay (See Supplementary materials for details)[48].
# 414 Supplementary Figure 13. Microbial metabolites dampen activity of purified Jack Bean
# 415 Urease (JBU). 0.1 U of JBU (1U liberates 1 µmol of ammonia from urea per minute) was
# 416 incubated at 37 °C with shaking in urease-dampening metabolites, 500mM urea, and phenol red.
# 417 A urea analogue, AHA, served as the positive control for inhibition of JBU. Absorbance
# 418 (OD562) was measured every 60 seconds for 90 minutes, and activity is expressed as percent of
# 419 maximum activity (% Max Activity) relative to untreated JBU. Graphs show mean±SD for 3
# 420 independent experiments with 3 technical replicates each. Data were analyzed by two tailed one
# 421 sample t-test to a hypothetical value of 100% activity. ***P<0.001, **P<0.002, *P<0.033.
# (1 picture or pasted object on this page, not shown here)
# [1] = Buffering capacity assay (NaOH titration, phenol red); type: physicochemical; conditions: high concentrations of metabolite in potassium phosphate buffer with phenol red
# Protocol: Known concentrations of sodium hydroxide were added to each well of a 96 well plate in combination with candidate dampening metabolite of interest buffered 1:10 in potassium phosphate buffer pH7. 0.01% phenol red was added to each well, and absorbance (OD562) was measured in a Synergy H1 plate reader (BioTek).
# [2] = molecular target: T2, urease of P. mirabilis HI4320 cell free extracts (Proteus mirabilis, UniProt P17086); type: biochemical
# T2 construct: 20ul of cell-free extract were distributed into a 96-well plate in place of the whole cell bacterial suspensions; endogenous in cells; host or cells: Proteus mirabilis HI4320, urea-induced; freeze-thaw and sonication lysate, clarified supernatant
# T2 sequence (P17088 whole entry): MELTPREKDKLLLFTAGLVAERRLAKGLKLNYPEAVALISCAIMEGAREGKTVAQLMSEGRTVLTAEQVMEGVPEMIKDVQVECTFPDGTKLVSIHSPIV
# T2 sequence (P17086 whole entry): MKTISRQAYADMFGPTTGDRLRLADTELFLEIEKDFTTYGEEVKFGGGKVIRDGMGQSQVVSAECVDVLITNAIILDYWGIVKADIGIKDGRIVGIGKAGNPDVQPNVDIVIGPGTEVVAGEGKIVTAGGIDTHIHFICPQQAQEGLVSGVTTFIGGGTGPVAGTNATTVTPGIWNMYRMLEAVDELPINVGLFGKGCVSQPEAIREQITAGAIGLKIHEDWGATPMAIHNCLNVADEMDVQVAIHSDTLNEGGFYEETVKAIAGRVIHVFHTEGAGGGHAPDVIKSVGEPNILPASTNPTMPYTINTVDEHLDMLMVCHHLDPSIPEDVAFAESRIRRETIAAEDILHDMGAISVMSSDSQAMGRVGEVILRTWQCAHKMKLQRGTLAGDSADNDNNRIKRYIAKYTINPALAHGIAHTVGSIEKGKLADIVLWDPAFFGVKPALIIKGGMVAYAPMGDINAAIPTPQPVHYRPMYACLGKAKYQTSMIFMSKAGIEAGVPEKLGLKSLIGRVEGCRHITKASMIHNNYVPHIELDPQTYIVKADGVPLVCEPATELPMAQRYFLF
# T2 sequence (P17087 whole entry, further chain): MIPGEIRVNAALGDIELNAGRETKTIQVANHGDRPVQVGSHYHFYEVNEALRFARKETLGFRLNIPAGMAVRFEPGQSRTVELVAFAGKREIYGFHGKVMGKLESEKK
# Protocol: To measure urease activity of the cell free extracts of P. mirabilis, P. mirabilis was cultured for ~18 h in LB broth and then sub cultured until it reached mid-log growth phase (OD600 0.2-0.5). Cultures were spun down to pellet at 10,000 rcf for 10 minutes and resuspended in saline to a final OD600 of 1.0. Cultures were then diluted 1:10 in potassium phosphate buffer pH7 supplemented with 500 mM urea and incubated at 37 °C with shaking for 1 h to induce its urease enzyme production. The isogenic urease mutant Pm ureF::kan (Supplementary Data 1) served as negative control. Cultures then were spun down to pellet at 10,000 rcf for 10 minutes and resuspended in 2 mL saline. Cultures were subjected to four cycles of freezing in liquid nitrogen and thawing in a 37 °C water bath. Cultures were then probe sonicated (on ice) at 25% amplitude for 10 sec. Sonicated cultures were centrifuged at 18,900 Xg for 5 min and supernatants were transferred to a clean tube and stored on ice. To measure urease activity of cell free extracts, the previously described assay was modified such that 20ul of cell-free extract were distributed into a 96-well plate in place of the whole cell bacterial suspensions. Acetohydroxamic acid (AHA), was used as a positive control. Percent of maximum urease activity was calculated using Area Under the Curve (AUC) relative to untreated cell free extracts of P. mirabilis.
# [3] = molecular target: T3, urease of P. mirabilis cell free extracts (Proteus mirabilis, UniProt P17086); type: biochemical
# T3 construct: 20ul of cell-free extract were distributed into a 96-well plate in place of the whole cell bacterial suspensions; endogenous in cells; host or cells: Proteus mirabilis HI4320, urea-induced; freeze-thaw and sonication lysate, clarified supernatant
# T3 sequence (P17086 whole entry): as the sequence (P17086 whole entry) above
# T3 sequence (P17088 whole entry, further chain): as the sequence (P17088 whole entry) above
# T3 sequence (P17087 whole entry, further chain): as the sequence (P17087 whole entry, further chain) above
# Protocol: For the kinetic analysis of the urease reaction in the presence of urease dampening metabolites, urease activity assays were repeated with the P. mirabilis cell free extracts. Six different inhibitor concentrations that gave linear rates of reaction over a period of 120 min were tested for their effects on urease activity in the presence of urea concentrations ranging from 0 to 500 mM. Simple linear regression was performed on the absorbance (OD562) over 120 minutes for each condition and plotted as Initial velocity (slope) vs urea concentration. These initial hyperbolic plots were converted to double-reciprocal Lineweaver-Burke plots, and the pattern of inhibition inferred from the point of intersection of the lines. Finally, the Ki for a particular compound was determined by plotting the Km/Vmax ratio (the slope of the Lineweaver-Burke plots) of each line as a function of the inhibitor concentration as described by ref. [49]. The X-intercept corresponded to –Ki.
# P. mirabilis urease [4] = molecular target: T4, P. mirabilis urease (Proteus mirabilis, UniProt P17086); type: cell-based; conditions: kphos
# T4 construct: it utilizes whole bacterial cells, rather than isolated enzyme preparations; endogenous in cells; host or cells: Proteus mirabilis HI4320, live whole cells
# T4 sequence (P17086 whole entry): as the sequence (P17086 whole entry) above
# T4 sequence (P17088 whole entry, further chain): as the sequence (P17088 whole entry) above
# T4 sequence (P17087 whole entry, further chain): as the sequence (P17087 whole entry, further chain) above
# Protocol: To assess the synergistic effects of dampening metabolites when used in combination with each other, P. mirabilis urease activity was measured as described above. Between 4-6 different concentrations for each dampening metabolite were tested both alone and in combination (See Fig. 6a for example). […] To account for variability between experiments, all conditions tested were performed on a single 96-well plate with three technical replicates for each condition. To compare between biologic replicates, percent inhibition relative to untreated P. mirabilis was calculated for each condition using the average area under the curve over 120-180 minutes (so that the positive control activity curve saturated without any increase in the negative control curve).
# Statistical analysis was conducted using a one sample T test of the combination index compared to a hypothetical value of 1 (additive effect). […] Therefore, combination indexes were calculated using a desired effect size less than 40% were indicated with an * in Fig. 6b and in Supplementary Data 5.
# P. mirabilis urease [5] = molecular target: T4, P. mirabilis urease; type: cell-based; conditions: screen of candidate metabolites; highest concentration tested 20mM; * Trending but not statistically significant
# Protocol: Urease activity was measured as described previously in triplicate with at least three biological replicates[21]. Briefly, bacteria were cultured for ~18 h in LB broth, concentrated to an OD600 of 4, washed once in saline, and diluted (1:10 for P. mirabilis and 1:50 for P. stuartii and M. morganii) into candidate dampening metabolites in potassium phosphate buffer or human urine pH7 and supplemented with 500 mM urea and 0.01% phenol red. Bacterial suspensions were distributed into a 96-well plate, incubated at 37 °C with double-orbital shaking in a Synergy H1 plate reader (BioTek), and absorbance (OD562) was measured every 60 seconds for 180 minutes. Isogenic urease mutants (Supplementary Data 1) served as negative controls for P. mirabilis and P. stuartii and a vehicle control served as a negative control for M. morganii.
# T1 sequence (P07374 whole entry, looked up): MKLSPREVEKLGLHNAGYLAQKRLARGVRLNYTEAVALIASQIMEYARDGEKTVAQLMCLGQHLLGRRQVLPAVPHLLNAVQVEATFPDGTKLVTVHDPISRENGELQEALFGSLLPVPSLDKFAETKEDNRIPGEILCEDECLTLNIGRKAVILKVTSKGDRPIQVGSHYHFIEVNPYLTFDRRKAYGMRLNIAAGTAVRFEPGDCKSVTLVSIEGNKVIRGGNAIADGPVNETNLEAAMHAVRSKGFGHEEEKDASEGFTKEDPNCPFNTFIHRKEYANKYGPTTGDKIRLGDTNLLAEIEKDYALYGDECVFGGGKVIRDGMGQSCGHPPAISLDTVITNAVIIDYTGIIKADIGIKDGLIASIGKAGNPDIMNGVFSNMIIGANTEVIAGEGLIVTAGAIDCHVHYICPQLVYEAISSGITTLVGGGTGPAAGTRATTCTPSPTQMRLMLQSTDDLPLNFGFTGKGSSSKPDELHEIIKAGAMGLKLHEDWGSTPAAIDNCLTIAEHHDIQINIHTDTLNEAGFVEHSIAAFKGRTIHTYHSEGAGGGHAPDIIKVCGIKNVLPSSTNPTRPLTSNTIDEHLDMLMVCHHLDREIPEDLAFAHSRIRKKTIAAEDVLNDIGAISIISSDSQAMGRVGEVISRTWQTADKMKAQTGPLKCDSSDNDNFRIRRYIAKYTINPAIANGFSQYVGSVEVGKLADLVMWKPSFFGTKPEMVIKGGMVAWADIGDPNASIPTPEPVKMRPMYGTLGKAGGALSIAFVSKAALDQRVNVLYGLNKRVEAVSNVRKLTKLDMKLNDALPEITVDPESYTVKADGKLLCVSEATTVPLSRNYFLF
smiles,measurement,setting,value
"O=C(O)[C@@H](O)Cc1cnc[nH]1 [L-imidazole lactate, L-imidazolelactic acid]",JBU activity,Jack Bean Urease (JBU),inhibited
same,buffering capacity: absorbance (OD562) across NaOH concentrations,[1],consistent reduction in absorbance compared to the control
same,urease activity of cell free P. mirabilis extracts,[2],at least partially inhibiting
same,change of estimated Km on addition of metabolite,[3],increase
same,change of estimated Vmax on addition of metabolite,[3],decrease
same,type of urease inhibition,"[3]; Michaelis-Menten parameters, Lineweaver-Burke plot",mixed inhibitors
same,Compound 1 %I alone,"P. mirabilis urease [4]; Compound 1 [] alone 25, assay date 2024 08 07",36.6%
same,Compound 1 %I alone,"P. mirabilis urease [4]; Compound 1 [] alone 37.5, assay date 2024 08 09",56.9%
same,Compound 1 %I alone,"P. mirabilis urease [4]; Compound 1 [] alone 50, assay date 2024 08 07",58.1%
same,Urease dampening activity,P. mirabilis urease [5],Yes
